Experiments:
[1] = oral intake; 'it is believed'; cited from earlier work
[2] = system: 'restless legs' and intermittent leg cramps; conditions: Week 3-4; scale 0 to 100
Excerpt: A person suffered from ‘restless legs’ and intermittent leg cramps during sleep.
Each week the subject was asked to rate the intensity of the problem on a consistent rating scale with ‘0’ indicating no problem and ‘100’ indicating the most severe expression of the condition.

| Compound | fraction of elemental magnesium absorbed for use by the body [1] [%] | Ave. intensity of leg cramp related difficulty [2] |
| --- | --- | --- |
| [O]=[Mg] [magnesium oxide] | 3 to 12 | – |
| choline citrate | – | 83 |

From patent US20130022673A1, “ENHANCEMENT OF MAGNESIUM UPTAKE IN MAMMALS” (priority 2003, published 2013)
